Columns and labels:
Type in all cases: in vivo
[1] = system: Johnsongrass (Sorghum halepense); assay: Preemergence herbicidal activity, johnsongrass; conditions: Rate of Application 0.3 Kg/Ha, examined after 12-17 days
[2] = system: wheat (Triticum aestivum var. Lew); assay: Postemergence herbicidal activity, wheat; conditions: rate of application 0.3 Kg/Ha, rated after 12-17 days
[3] = system: field corn (Zea mays var. Pioneer 3732); assay: Postemergence herbicidal activity, corn; conditions: rate of application 0.3 Kg/Ha, rated after 12-17 days
[4] = system: velvetleaf (Abutilon theophrasti); assay: Postemergence herbicidal activity, velvetleaf; conditions: rate of application 0.3 Kg/Ha, rated after 12-17 days
[5] = system: velvetleaf (Abutilon theophrasti); assay: Preemergence herbicidal activity, velvetleaf; conditions: Rate of Application 0.3 Kg/Ha, examined after 12-17 days
[6] = system: blackgrass (Aloepecurus myosuroides); assay: Postemergence herbicidal activity, blackgrass; conditions: rate of application 0.3 Kg/Ha, rated after 12-17 days
Description: The benzofused heterocyclic compounds of this invention were tested for pre- and postemergence herbicidal activity using a variety of crops and weeds. The test plants included soybean (Glycine max var. Winchester), field corn (Zea mays var. Pioneer 3732), wheat (Triticum aestivum var. Lew), morningglory (Ipomea lacunosa or Ipomea hederacea), velvetleaf (Abutilon theophrasti), green foxtail (Setaria viridis), Johnsongrass (Sorghum halepense), blackgrass (Aloepecurus myosuroides), common chickweed (Stellaria media), and common cocklebur (Xanthium strumarium L.).
For preemergence testing, two disposable fiber flats (8 cm×15 cm×25 cm) for each rate of application of each candidate herbicide were filled to an approximate depth of 6.5 cm with steam-sterilized sandy loam soil. The soil was leveled and impressed with a template to provide five evenly spaced furrows 13 cm long and 0.5 cm deep in each flat. Seeds of soybean, wheat, corn, green foxtail, and johnsongrass were planted in the furrows of the first flat, and seeds of velvetleaf, morningglory, common chickweed, cocklebur, and blackgrass were planted in the furrows of the second flat. The five-row template was employed to firmly press the seeds into place. A topping soil of equal portions of sand and sandy loam soil was placed uniformly on top of each flat to a depth of approximately 0.5 cm. Flats for postemergence testing were prepared in the same manner except that they were planted 9-14 days prior to the preemergence flats and were placed in a greenhouse and watered, thus allowing the seeds to germinate and the foliage to develop.
In both pre- and postemergence tests, a stock solution of the candidate herbicide was prepared by dissolving 0.27 g of the compound in 20 mL of water/acetone (50/50) containing 0.5% v/v sorbitan monolaurate. For an application rate of 3000 g/ha of herbicide a 10 mL portion of the stock solution was diluted with water/acetone (50/50) to 45 mL.
The preemergence flats were initially subjected to a light water spray. The four flats were placed two by two along a conveyor belt (i.e., the two preemergence followed by the two postemergence flats). The conveyor belt fed under a spray nozzle mounted about ten inches above the post-emergent foliage. The preemergent flats were elevated on the belt so that the soil surface was at the same level below the spray nozzle as the foliage canopy of the postemergent plants. The spray of herbicidal solution was commenced and once stabilized, the flats were passed under the spray at a speed to receive a coverage equivalent of 100 L/ha. At this coverage the application rates are those shown in the above table for the individual herbicidal solutions. The preemergence flats were watered immediately thereafter, placed in the greenhouse and watered regularly at the soil surface. The postemergence flats were immediately placed in the green-house and not watered until 24 hours after treatment with the test solution. Thereafter they were regularly watered at ground level. After 12-17 days the plants were examined and the phytotoxicity data were recorded.
Phytotoxicity data were taken as percent control. Percent control was determined by a method similar to the 0 to 100 rating system disclosed in “Research Methods in Weed Science,” 2nd ed., B. Truelove, Ed.; Southern Weed Science Society; Auburn University, Auburn, Ala., 1977.

[7] = system: green foxtail (Setaria viridis); assay: Postemergence herbicidal activity, green foxtail; conditions: rate of application 0.3 Kg/Ha, rated after 12-17 days
[8] = system: soybean (Glycine max var. Winchester); assay: Postemergence herbicidal activity, soybean; conditions: rate of application 0.3 Kg/Ha, rated after 12-17 days
[9] = system: green foxtail (Setaria viridis); assay: Preemergence herbicidal activity, green foxtail; conditions: Rate of Application 0.3 Kg/Ha, examined after 12-17 days
[10] = system: morningglory (Ipomea lacunosa or Ipomea hederacea); assay: Postemergence herbicidal activity, morningglory; conditions: rate of application 0.3 Kg/Ha, rated after 12-17 days
[11] = system: field corn (Zea mays var. Pioneer 3732); assay: Preemergence herbicidal activity, corn; conditions: Rate of Application 0.3 Kg/Ha, examined after 12-17 days
[12] = system: Johnsongrass (Sorghum halepense); assay: Postemergence herbicidal activity, johnsongrass; conditions: rate of application 0.3 Kg/Ha, rated after 12-17 days
[13] = system: wheat (Triticum aestivum var. Lew); assay: Preemergence herbicidal activity, wheat; conditions: Rate of Application 0.3 Kg/Ha, examined after 12-17 days
[14] = system: morningglory (Ipomea lacunosa or Ipomea hederacea); assay: Preemergence herbicidal activity, morningglory; conditions: Rate of Application 0.3 Kg/Ha, examined after 12-17 days
[15] = system: common cocklebur (Xanthium strumarium L.); assay: Preemergence herbicidal activity, cocklebur; conditions: Rate of Application 0.3 Kg/Ha, examined after 12-17 days
[16] = system: soybean (Glycine max var. Winchester); assay: Preemergence herbicidal activity, soybean; conditions: Rate of Application 0.3 Kg/Ha, examined after 12-17 days
[17] = system: blackgrass (Aloepecurus myosuroides); assay: Preemergence herbicidal activity, blackgrass; conditions: Rate of Application 0.3 Kg/Ha, examined after 12-17 days
[18] = system: common cocklebur (Xanthium strumarium L.); assay: Postemergence herbicidal activity, cocklebur; conditions: rate of application 0.3 Kg/Ha, rated after 12-17 days

SMILES | PREEMERGENCE HERBICIDAL ACTIVITY (% CONTROL) SORHA [1] [%] | Postemergence herbicidal activity (% control) WHT [2] [%] | Postemergence herbicidal activity (% control) CRN [3] [%] | Postemergence herbicidal activity (% control) ABUTH [4] [%] | PREEMERGENCE HERBICIDAL ACTIVITY (% CONTROL) ABUTH [5] [%] | Postemergence herbicidal activity (% control) ALOMY [6] [%] | Postemergence herbicidal activity (% control) SETVI [7] [%] | Postemergence herbicidal activity (% control) SOY [8] [%] | PREEMERGENCE HERBICIDAL ACTIVITY (% CONTROL) SETVI [9] [%] | Postemergence herbicidal activity (% control) IPOSS [10] [%] | PREEMERGENCE HERBICIDAL ACTIVITY (% CONTROL) CRN [11] [%] | Postemergence herbicidal activity (% control) SORHA [12] [%] | PREEMERGENCE HERBICIDAL ACTIVITY (% CONTROL) WHT [13] [%] | PREEMERGENCE HERBICIDAL ACTIVITY (% CONTROL) IPOSS [14] [%] | PREEMERGENCE HERBICIDAL ACTIVITY (% CONTROL) XANPE [15] [%] | PREEMERGENCE HERBICIDAL ACTIVITY (% CONTROL) SOY [16] [%] | PREEMERGENCE HERBICIDAL ACTIVITY (% CONTROL) ALOMY [17] [%] | Postemergence herbicidal activity (% control) XANPE [18] [%]
CC(c1ccccc1)c1nc2c(Cl)cc(F)c(-n3c(=O)cc(C(F)(F)F)n(C)c3=O)c2[nH]1 (stereo not drawn) [Compound 377] | 100 | 80 | 100 | 100 | 100 | 100 | 100 | 95 | 100 | 100 | 90 | 100 | 70 | 100 | 100 | 100 | 100 | 100
CC(=O)OC(c1ccccc1)c1nc2c(-n3c(=O)cc(C(F)(F)F)n(C)c3=O)c(F)cc(Br)c2o1 (stereo not drawn) [Compound 103] | 70 | 50 | 80 | 100 | 100 | 70 | 100 | 90 | 100 | 80 | 80 | 60 | 50 | 100 | 70 | 50 | 90 | 80
Cn1c(C(F)(F)F)cc(=O)n(-c2c(F)cc(Cl)c3nc(Cc4cccc(Cl)c4)[nH]c23)c1=O [Compound 382] | 80 | 40 | 100 | 100 | 100 | 80 | 90 | 80 | 95 | 100 | 30 | 80 | 45 | 70 | 60 | 60 | 90 | 100
Cn1c(C(F)(F)F)cc(=O)n(-c2c(F)cc(Cl)c3nc(Cc4ccc(Cl)cc4)[nH]c23)c1=O [Compound 383] | 55 | 40 | 95 | 100 | 100 | 60 | 95 | 95 | 75 | 95 | 20 | 70 | 40 | 60 | 70 | 80 | 80 | 100
Cn1c(C(F)(F)F)cc(=O)n(-c2c(F)cc(Cl)c3nc(CCCc4ccccc4)[nH]c23)c1=O [Compound 380] | 70 | 30 | 95 | 100 | 100 | 70 | 100 | 95 | 100 | 100 | 20 | 80 | 35 | 100 | 80 | 80 | 90 | 100
Cn1c(C(F)(F)F)cc(=O)n(-c2c(F)cc(Cl)c3nc(Cc4ccccc4Cl)[nH]c23)c1=O [Compound 381] | 80 | 40 | 95 | 100 | 100 | 100 | 100 | 95 | 100 | 100 | 80 | 100 | 40 | 100 | 100 | 100 | 90 | 100
Cn1c(C(F)(F)F)cc(=O)n(-c2c(F)cc(Cl)c3nc(CCc4ccccc4)[nH]c23)c1=O [Compound 379] | 95 | 80 | 100 | 100 | 100 | 70 | 100 | 95 | 100 | 100 | 70 | 100 | 50 | 100 | 100 | 100 | 80 | 100

Reference: patent publication US6352958B1, “Cycloimido-substituted benzofused heterocyclic herbicides” (FMC Corporation, priority 1997, dated 2002)
